Where two headings read alike, the source gives them in different places.
Legend:
[1] = test system: Escherichia coli (E. coli—ATCC #10536); test: Automated assessment of efficacy in model surfactant base (2.85% sodium cocoyl glycinate + 1.85% sodium lauroamphoacetate, pH 10), 15 seconds exposure, OD450/OD590 readout; assay type: cell-based; conditions: for No. of replicates showing growth (out of 4) / Δ OD 450 nm = OD450 (time = 16 hours) - OD450 (time zero), Mean / Δ OD 590 nm OD590 (time = 16 hours) - OD590 (time zero), Mean: model surfactant solution; for MBC: Escherichia coli, ATCC10536, 15 s; for Phenol MBC %(w/v): phenol alone, model surfactant, E. Coli
Experimental: Solutions were prepared such that the concentrations of the surfactant components and test actives were 1.1×x the final desired concentration in order to allow for dilution with the bacterial inoculum in the test. The solutions were manually adjusted to pH 10.0 by drop wise addition of sodium hydroxide solution, as measured with a phi meter at ambient temperature.
Tests were conducted using standard microtiter plate assays using an automated liquid handling system, 270 μl of the surfactant test solution was pipetted into each well of the microtitre plate and 30 μl of the bacterial suspension was then added. After exactly 15 seconds of bacterial exposure, a 30 μl volume of bacterial cells was withdrawn and transferred to 270 μl of D/E quench solution. After 5 minutes in the D/E quench, the optical density (OD) was measured for each plate in turn at two specific wavelengths (450 nm and 590 nm). These provide a dual check of antimicrobial activity, as the OD450 reading is specific for the yellow colour of D/E quench when bacterial growth is observed, whereas OD590 is specific for the initial purple colour of the D/E quench which is retained if no bacterial growth is observed. After the time zero OD measurements, plates were then incubated at 37° C. overnight (16 hours) before repeating the OD measurements. Delta OD values were calculated by subtracting […] the initial value at time zero. Bacterial growth is observed as an increase in OD450 and a decrease in ΔOD590. To identify antibacterially efficacious systems (those preventing appreciable bacterial growth after incubation), the following threshold changes in OD readings have been adopted: if (1), OD450 increases by less than 0.2 absorbance unit on incubation and (2). OD590 decreases by less than 0.35 unit on incubation. Conversely, where OD450 increases by more than 0.2 AU and OD590 decreases by more than 0.35 unit after incubation, corresponding to a colour shift from purple to yellow, the test system allows bacterial growth and is not deemed efficacious. Four replicate measurements in the same plate have been made for each test system. The number of replicate wells showing either bacterial growth or no growth is also readily assessed by eye by following the colour change.
Dose responses for individual components and binary mixtures of actives at a used concentration ratio were generated by sequential dilution of liquors with further surfactant solution to obtain a series of endpoints.
In some selected cases, the combinations were also tested at the weight ratio 1:1.

[2] = test system: Escherichia coli (E. coli—ATCC #10536); test: Synergy test: high resolution MBC microtiter plate assay, phosphate buffer containing 35% dipropylene glycol, 15 seconds contact; assay type: cell-based; conditions: E. coli 10536; for SI (Synergy Index = Qa/QA + Qb/QB): at Qa and Qb, <1 synergy, 1 additivity, >1 antagonism; for Qa: MBC of the first component (A) acting alone (QA): component alone (Qb = 0), complete kill in 15 seconds
From the text: One measure of synergy is -the industrially accepted method described by Kull, F. C.; Eisman, P. C.; Sylwestrowicz, H. D. and Mayer, R. L., in Applied Microbiology 9:538-541 (1961), using the ratio determined by the formula:
Qa/QA+Qb/QB=Synergy Index (“SI”)
wherein: QA=concentration of compound A (first component) in percent, acting alone, which produced an end point (MBC of Compound A). Qa =concentration of compound A in percent, in the mixture, which produced an end point. QB=concentration of compound B (second component) in percent, acting alone, which produced an end point (MBC of Compound B). Qb=concentration of compound B in percent, in the mixture, which produced an end point.
When the sum of Qa/QA and Qb/QB is greater than one, antagonism is indicated. […] The lower the SI, the greater is the synergy shown by that particular mixture. The minimum biocidal concentration (MBC) of a microbicide is the lowest concentration tested under a specific set of conditions that provides complete kill of the tested microorganisms.
Synergy tests were-conducted using standard microtiter plate assays with, phosphate buffer containing 35% dipropylene glycol (DPG). In this method, a wide range of combinations of chemicals was tested by conducting high resolution MBC assays of Component (A) in the presence of various concentrations of Component (B). High resolution MBCs were determined by adding varying amounts of microbicide to one column of a microtiter plate and doing subsequent ten-fold dilutions using an automated liquid handling system to obtain a series of closely spaced endpoints. The MBC plate was inoculated one column at a time with the test microorganism. An aliquot of the inoculated well was transferred at 15 seconds to a plate containing a neutralizing agent (D/E Neutralizing Broth), mixed and held for 5 minutes before being transferred to a growth plate containing trypticase soy broth (TSB). The TSB plate was incubated at 37° C. and read for the presence/absence of growth at 24 hours. The lowest level tested that provided complete kill (as evidenced by no growth in the microtitre plate) of the test organisms in 15 seconds is the minimum biocidal concentration (MBC).
The synergy of the combinations of the present invention was determined against a bacterium, Escherichia coli (E. coli—ATCC #10536), at a concentration of approximately 1×10^8 bacteria per mL. This microorganism is representative of natural contaminants in many consumer and industrial applications.

[3] = in 2.85% sodium cocoyl glycinate + 1.85% sodium lauroamphoacetate solution at pH 10, E. coli, read-out: MBC (% w/v)

SMILES	No. of replicates showing growth (out of 4) ([1]; component alone at 0.05% w/v)	Δ OD 450 nm = OD450 (time = 16 hours) - OD450 (time zero), Mean ([1]; component alone at 0.05% w/v)	Δ OD 590 nm OD590 (time = 16 hours) - OD590 (time zero), Mean ([1]; component alone at 0.05% w/v)	SI (Synergy Index = Qa/QA + Qb/QB) [2]	Qa: MBC of the first component (A) acting alone (QA) [2] [weight %]	MBC [1, 3] [µg/mL]	No. of replicates showing growth (out of 4) ([1]; component alone at 0.2% w/v)	Δ OD 450 nm = OD450 (time = 16 hours) - OD450 (time zero), Mean ([1]; component alone at 0.2% w/v)	Δ OD 590 nm OD590 (time = 16 hours) - OD590 (time zero), Mean ([1]; component alone at 0.2% w/v)	No. of replicates showing growth (out of 4) ([1]; component alone at 0.125% w/v)	Δ OD 450 nm = OD450 (time = 16 hours) - OD450 (time zero), Mean ([1]; component alone at 0.125% w/v)	Δ OD 590 nm OD590 (time = 16 hours) - OD590 (time zero), Mean ([1]; component alone at 0.125% w/v)	No. of replicates showing growth (out of 4) ([1]; component alone at […] w/v)	Δ OD 450 nm = OD450 (time = 16 hours) - OD450 (time zero), Mean ([1]; component alone at […] w/v)	Δ OD 590 nm OD590 (time = 16 hours) - OD590 (time zero), Mean ([1]; component alone at […] w/v)	other results
CCCc1ccccc1O [2-propyphenol]	4 out of 4	−1.43	0.46													
CCC(C)c1ccccc1O (centres unmarked) [2-sec-butylphenol]	4 out of 4	−1.50	0.30	1.00	0.2	1750	0 out of 4	−0.01	0.09							Phenol MBC %(w/v) [1]: 0.175 %(w/v)
Cc1ccc(C(C)(C)C)c(O)c1 [2-tert-butyl-5-methylphenol]	4 out of 4	−1.50	0.29			2000				4 out of 4	−1.45	0.32	4 out of 4	−1.47	0.28	No. of replicates showing growth (out of 4) ([1]; component alone at 0.175% w/v): 4 out of 4; Δ OD 450 nm = OD450 (time = 16 hours) - OD450 (time zero), Mean ([1]; component alone at 0.175% w/v): −1.30; Δ OD 590 nm OD590 (time = 16 hours) - OD590 (time zero), Mean ([1]; component alone at 0.175% w/v): 0.47
CC(C)(C)c1ccccc1O [2-tert-butylphenol]	4 out of 4	−1.58	0.22	1.00		2000				4 out of 4	−1.48	0.30	4 out of 4	−1.50	0.28	No. of replicates showing growth (out of 4) ([1]; component alone at 0.175% w/v): 4 out of 4; Δ OD 450 nm = OD450 (time = 16 hours) - OD450 (time zero), Mean ([1]; component alone at 0.175% w/v): −1.08; Δ OD 590 nm OD590 (time = 16 hours) - OD590 (time zero), Mean ([1]; component alone at 0.175% w/v): 0.57; Phenol MBC %(w/v) [1]: 0.2 %(w/v)
Cc1cc(O)cc(C(C)C)c1 [3-isopropyl-5-methylphenol]				1.00												
CCCc1cccc(O)c1 [3-n-propylphenol]				1.00	0.5	> 2000	4 out of 4	−0.57	0.56	4 out of 4	−0.59	0.57	4 out of 4			
CC(C)(C)c1cccc(O)c1 [3-tert-butylphenol]				1.00	0.3	> 2000	4 out of 4	−0.47	0.64	4 out of 4	−0.45	0.65	4 out of 4	−0.43	0.65	
Cc1cc(O)ccc1C(C)C [4-isopropyl-3-methylphenol]	4 out of 4	−1.52	0.25	1.00		> 2000	4 out of 4	−1.41	0.36				4 out of 4	−1.53	0.27	No. of replicates showing growth (out of 4) ([1]; component alone at 0.1% w/v): 4 out of 4; Δ OD 450 nm = OD450 (time = 16 hours) - OD450 (time zero), Mean ([1]; component alone at 0.1% w/v): −1.50; Δ OD 590 nm OD590 (time = 16 hours) - OD590 (time zero), Mean ([1]; component alone at 0.1% w/v): 0.24
CCCCc1ccc(O)cc1 [4-n-butylphenol]				1.00	0.2											
CCCc1ccc(O)cc1 [4-propylphenol]				1.00		> 2000	4 out of 4	−1.49	0.43	4 out of 4	−1.56	0.37	4 out of 4			
CCC(C)c1ccc(O)cc1 (centres unmarked) [4-sec-butylphenol]				1.00	0.2	> 2000	4 out of 4	−0.56	0.59	4 out of 4	−0.56	0.60	4 out of 4	−0.53	0.60	No. of replicates showing growth (out of 4) ([1]; component alone at 0.175% w/v): 4 out of 4; Δ OD 450 nm = OD450 (time = 16 hours) - OD450 (time zero), Mean ([1]; component alone at 0.175% w/v): −0.54; Δ OD 590 nm OD590 (time = 16 hours) - OD590 (time zero), Mean ([1]; component alone at 0.175% w/v): 0.59
Cc1ccc(C(C)C)cc1O [5-isopropyl-2-methylphenol]				1.00			4 out of 4	−0.52	0.62				4 out of 4			MBC ([1]; pH 10, read-out: MBC (% w/v)): > 2000 µg/mL; No. of replicates showing growth (out of 4) ([1]; component alone at 0.1% w/v): 4 out of 4; Δ OD 450 nm = OD450 (time = 16 hours) - OD450 (time zero), Mean ([1]; component alone at 0.1% w/v): −0.52; Δ OD 590 nm OD590 (time = 16 hours) - OD590 (time zero), Mean ([1]; component alone at 0.1% w/v): 0.62

— US20150087723A1, “MICROBIAL COMPOSITION” (Rohm and Haas Company, priority 2011, published 2015)
